# Assays:
# [1] = tested on: vincristine induced neuropathy; assay: Morphometric analysis of sciatic nerve in vincristine-treated rats; type: in vivo, rat
# Experimental: Histomorphometric analyses were carried out as described in Example 18 at the completion of the experiments, to explore morphologic changes occurring in fiber and axon diameter and myelin thickness in rats treated with vincristine and in rats co-administrated with IL-6.
# With vincristine, morphometric analysis was performed 2 week after the end of vincristine administration on 3 animals per group. The animals were anesthetized by IP injection of 100 mg/kg Imalgène 500®. A 5 mm segment of sciatic nerve was excised, fixed overnight with 4% glutaraldehyde (Sigma, L'Isle d'Abeau-Chesnes, France) in phosphate buffered saline (PBS) (pH=7.4) and maintained in 30% sucrose and stored at 4° C. until further processing. At the time of use, the nerve sample was post-fixed in 1% osmium tetroxide (Sigma, L'Isle d'Abeau-Chesnes, France) in PBS for 2 h, dehydrated in serial alcohol solution, and embedded in Epon. Embedded tissues were then placed at 70° C. during 3 days to allow polymerization of the tissue wax. Cross sections of 1.5 μm thick were performed and they were stained with a 1% toluidine blue solution (Sigma, L'Isle d'Abeau-Chesnes, France) for 2 min, dehydrated and mounted on Eukitt. Twelve sections per sample were examined using an optical microscope (Nikon, Tokyo, Japan) and analyzed using, a semi-automated digital image analysis software (Biocom, France). The fiber diameter (a), axon diameter (b), and myelin thickness (c) were measured as illustrated below.
# [2] = tested on: cisplatin induced neuropathy; assay: Hot plate test, therapeutic treatment of established cisplatin neuropathy; type: in vivo, rat; conditions: 4-MC 10 μg/kg IP daily from day 23; after 2 weeks; p≦0.05
# [3] = tested on: cisplatin induced neuropathy; type: in vivo, rat
# Experimental: The drug was diluted in 0.9% sterile aqueous solution of sodium chloride.
# 4-MC was diluted in 0.9% sterile aqueous solution of sodium chloride and injected daily via IP route from day 23 to the end of the experiment.
# Electrophysiological tests described in Example 17, were carried out in parallel to the behavioral tests (described in the preceding example) in cisplatin-established neuropathy model. The objective was to assess the therapeutic effect of IL-6 in cisplatin-induced loss of fiber/nerve function.
# (§1) Electrophysiological recordings were performed using a Neuromatic 2000M electromyograph (EMG) (Dantec, Les Ulis, France). Rats were anaesthetized by IP injection of 60 mg/kg ketamine chlorhydrate (Imalgene 500®, Rhône Merieux, Lyon, France). The normal body temperature was maintained around […] with a heating lamp and verified using a contact thermometer (Quick, Bioblock Scientific, Illkirch, France) placed on the tail surface.
# (§2) Sensitive nerve conduction velocity (SNCV) was also recorded. The tail skin electrodes were placed as follows: a reference needle inserted at the base of the tail and an anode needle placed 30 mm away from the reference needle toward the extremity of the tail. A ground needle electrode was inserted between the anode and reference needles. The caudal nerve was stimulated with a series of 20 pulses (for 0.2 ms) at an intensity of 12.8 mA. The velocity was expressed in m/s.
# (§3) H-wave reflex was recorded in the hind footpad muscle after stimulation of the sciatic nerve. A reference electrode and a ground needle were placed on the lower back of the rat. The sciatic nerve was stimulated with a single 0.2 ms pulse at supramaximal intensity. The amplitude (mV) of H wave and the proportion of animal lacking H wave response were the parameters studied.
# [4] = tested on: cisplatin induced neuropathy; assay: Hot plate test in cisplatin-treated rats, co-administration; type: in vivo, rat; conditions: 4-MC 10 μg/kg IP daily; 3 weeks
# Experimental: (§4) The rat was placed inside a glass cylinder of 17 cm height and 21 cm diameter on a heating-plate maintained at 52° C. (Medite OTS 40, Microm, Francheville, Rhône, France). The animal behavior was observed, particularly the licking of a foot and the adjusted leap. The latency before licking a foot or before jumping to escape the heat (adjusted leap) was recorded. The time needed to feel the thermal pain is related to the thermal sensitivity and tends to increase when thermal sensitivity is altered.
# [5] = tested on: cisplatin induced neuropathy; type: in vivo, rat; conditions: 4-MC 10 μg/kg IP daily
# Experimental: Electrophysiological monitoring in cisplatin-induced neuropathy model was carried out as described in Example 17. The objective was to assess the effect of co-administration with IL-6 in cisplatin-induced loss of fiber/nerve function.
# as §1
# (§5) Compound muscle action potential (CMAP) of M wave signal (or electrically evoked muscle potential) was recorded in the gastrocnemius muscle after stimulation of the sciatic nerve. M wave reflects the current developed during the action potential of muscle fibers. A reference electrode and an active needle were placed in the hind paw. A ground needle was inserted on the lower back of the rat. Sciatic nerve was stimulated with a single 0.2 ms pulse at supramaximal intensity. The […] of the motor wave was recorded and expressed in ms.
# as §2, §3
# [6] = tested on: cisplatin induced neuropathy; assay: Morphometric analysis of sciatic nerve in cisplatin-treated rats, co-administration; type: in vivo, rat; conditions: 4-MC 10 μg/kg IP daily
# Experimental: The total number of fibers per nerve section was obtained from 3 randomized slices of each sample. The counting was performed on 2 selected fields per slice.
# [7] = tested on: cisplatin induced neuropathy; assay: Morphometric analysis, therapeutic treatment of established cisplatin neuropathy; type: in vivo, rat; conditions: 4-MC 10 μg/kg IP
# Description: The number of degenerated and non-degenerated fibers on the entire surface of each nerve section was counted by an operator in a blinded fashion. All the results (except the data expressed as ratio value) were reported as percentage of changes in reference to the control value.
# [8] = tested on: vincristine induced neuropathy; assay: Electromyography (EMG) in vincristine-treated rats; type: in vivo, rat
# Experimental: In parallel to behavioral tests, electrophysiological test as described in Example 17, were carried out to evaluate fiber/nerve function in vincristine-administered rats vis-à-vis rats co-administrated with IL-6.
# as §1, §5, §2, §3
# [9] = tested on: taxol induced neuropathy; assay: Electrophysiological monitoring in taxol induced neuropathy, co-administration; type: in vivo, rat
# Experimental: The aim of the following experiment was to investigate the potential neuroprotective effect of IL6 in an additional model of chemotherapeutic induced neuropathy mediated by taxol. The potential preventive effect of IL-6 co-administration was tested. Administration of IL-6 was initiated together with taxol administration. The doses of IL-6 of 3 and 10 μg/kg were administered daily or in the case 10 μg/kg also only 3 times per week.
# Females 10 weeks old aged Dark Agouti rats were used, 12 animals per group were included as following
# The taxol was diluted in a solution of cremophor/ethanol/dextrose 5% and administered twice a week during 4 weeks.
# 4-MC and test compounds treatment was initiated the first day of intoxication and was stopped at the end of the study.
# The study was performed on 8 weeks (1 week for the baseline, 4 weeks for the taxol intoxication and 3 weeks of recovery).
# Control, taxol, and taxol-IL-6 co-administered group of rats at the indicated doses were subjected to electrophysiological monitoring to assess the effect of IL-6 in taxol-induced loss of fiber/nerve function.
# as §2
# H-wave reflex was recorded in the hind footpad muscle after stimulation of the sciatic nerve. […] The sciatic nerve was stimulated with a single 0.2 ms pulse at supramaximal intensity. The amplitude (mV) of H wave and the proportion of animal lacking H wave response were the parameters studied.
# [10] = tested on: vincristine induced neuropathy; assay: Hot plate test in vincristine-treated rats; type: in vivo, rat
# Experimental: as §4
# [11] = tested on: lung (SK-MES1) tumor cell line; assay: Cell survival by acid phosphatase activity assay, SK-MES1; type: cell-based, human; conditions: 4 days; for decrease in cell survival versus control: cisplatin (2.5 μM), carboplatin (25 μM)
# Experimental: (§6) The human lung (SK-MES1) and breast (MCF7) tumor cell lines were obtained from ATCC. The cell lines were maintained in Dulbecco's MEM medium (Gibco; Invitrogen, Cergy-Pontoise, France, ref. 41965039) supplemented with 1% antibiotic/antimicotic mixture solution (Gibco, ref. 15240062), and 10% heat-inactivated foetal bovine serum (Gibco, ref. F7524, batch 92K3387). The cells were amplified in Nunc tissue culture flasks (80 cm2) in a humidified incubator at 37° C. with 5% CO2 in 95% air. Cultures were sub-cultured twice a week.
# (§7) The enzymatic activity has been proven to be proportional to the number of living cells (Ueda et al.; 1994).
# (§8) Three days after the last replication, tumor cells were seeded in 96 well-plates (TPP, VWR International, Fontenay-sous-bois, France) at a density of 1,500 cells (MCF7 line) or 3,000 cells (SK-MES1 line) per well, in a total volume of 100 μl/well and incubated overnight in a humidified incubator at 37° C. with 5% CO2 in 95% air. […] IL-6 (in buffer solution at 1.8 mg/ml, PH: 7) was immediately added at concentrations of 0, 3, 12, 50 or 200 ng/ml.
# (§9) Four days after the initiation of the intoxication, acid phosphatase activity (Example 21) in each cell culture was assessed.
# (§10) After removal of the culture medium, cells were rinsed with phosphate-buffered saline (PBS, Gibco, ref. 14190-094) and further incubated for 90 min at 37° C. in 100 μl of buffer containing 0.1 mol/l sodium acetate (pH 5.5), 0.1% Triton X100 (Sigma, ref. T9284) and 10 mmol/l p-nitrophenyl phosphate (Sigma, ref. N9389). Reaction was stopped by addition of 10 μl of 1 mol/l sodium hydroxide aqueous solution (Laboratoire de Produit Chimiques de la Robertsau, Strasbourg, France; ref. 28.252.293). Absorbance of the colored solution was measured at 405 nm in a microplate reader (Labsystems Multiskan Bichromatic, EST-LAB, Strasbourg, France).
# (§11) The results were expressed as percentage of optical density of the control cell cultures. The heights of the columns represent mean±SEM of percentages of 5-6 wells from two independent cultures.
# [12] = tested on: breast (MCF7) tumor cell line; assay: Cell survival by acid phosphatase activity assay, MCF7; type: cell-based, human; conditions: 4 days; for decrease in cell survival versus control: cisplatin (2.5 μM), carboplatin (25 μM)
# Experimental: as §6, §7, §8, §9, §10, §11
# [13] = tested on: vincristine induced neuropathy; assay: Walking test (motor coordination) in vincristine-treated rats; type: in vivo, rat; conditions: vincristine alone; after 2 and 3 weeks
# Experimental: The motor coordination was assessed using walking test, which consists at measuring the time taken by a rat placed at one extremity of a 100 cm-long horizontal wooden rod of 5.5 cm diameter, 40 cm above the table, to cover a distance of 1 m on this rod. Three tests (maximum duration: 60 s each) were performed, and the mean value was calculated and retained as characteristic value. If the animal fell down, it was scored with a maximum of 60 s.
# [14] = Body weight in vincristine induced neuropathy rat model; conditions: vincristine 0.15 mg/kg, vehicle-treated
# Experimental: The experiments were carried out employing 10 weeks-old female Dark Agouti rats (Janvier, Le Genest-St-Isle, France). […] 4-MC is a standard compound with an established neuroprotective action, used at the dose of 10 μg/kg (n=10).
# Vincristine (Tocris, Illkirch, France) was administered by an injection of a vincristine solution from day 0 to 5, from day 8 to 12 and from day 15 to 16 at a dose of 0.15 mg/kg. A vincristine solution (0.03 mg/ml) was prepared in saline.
# IL-6 was diluted in saline containing 0.02% BSA and was administered via subcutanuous route every day from the first day of vincristine administration until the end of the experiment.
# [15] = tested on: vincristine induced neuropathy; assay: Hindpaw skin biopsy, density of dermal nerve fibers in vincristine-treated rats; type: in vivo, rat; conditions: vincristine intoxication
# Experimental: A 5-10 mm diameter area of skin was punch-biopsied from the hindpaw. Skin samples were immediately fixed overnight in paraformaldehyde at 4° C., incubated (overnight) in 30% sucrose in 0.1 M PBS for cryoprotection, embedded in OCT and frozen at −80° C. until cryocut. 50 μm-thick cryosections were then cut vertical to the skin surface with a cryostat. Free-floating sections were incubated for 7 days in a bath of rabbit anti-protein gene product 9.5 (1:10000; Ultraclone, Isle of Man, UK) at 4° C. The sections were then processed to reveal immunoreactivity according to the ABC peroxidase method. Briefly, they were incubated in for 1 hr with biotinylated anti-goat antibody (1:200), then 30 min in the avidin biotinylated complex at room temperature. Peroxidase activity was visualized using DAB system. Sections were then counterstained with eosin or hematoxylin. Sections were dehydrated, cleared with bioclear and mounted on eukitt. The number of dermal nerves of 3 microscope fields was counted manually under 40 magnification view.
smiles,measurement,setting,value
"Cc1ccc(O)c(O)c1 [4-MC, 4-methylcatechol]",decrease in axon diameter by vincristine,[1]; 4-MC 10 μg/kg IP daily,significantly reduced/prevented the decrease in axon diameter
same,percentage of degenerated fibers in vincristine treated rats,[1]; 4-MC 10 μg/kg IP daily,decreased the percentage of degenerated fibers
same,vincristine-induced fiber shrinkage,[1]; 4-MC 10 μg/kg IP daily,protected
same,time of the first reaction to heat,[2],Reduction of the time of the first reaction to heat
same,cisplatin-induced H wave loss in amplitude,[3]; 4-MC 10 μg/kg IP daily from day 23,reversed the cisplatin-induced H wave loss in amplitude
same,SNCV in cisplatin-treated animals,"[3]; 4-MC 10 μg/kg IP, significant only 2 weeks after treatment initiation",appeared to improve SNCV
same,first reaction time versus cisplatin alone,[4],slight but not significant decrease
same,loss of H wave induced by cisplatin,[5],only a delayed and transient effect
same,decrease in SNCV by cisplatin,[5]; only after 5 weeks,transiently prevented the decrease in SNCV
same,cisplatin-induced decrease in fiber or axon diameter,[6],protected against the decrease in cisplatin-induced fiber diameter or axon
same,loss of myelin wall by cisplatin,[6],significant protection against loss of myelin wall
same,cisplatin-induced myelin sheath thinning,[7],did not interfere with cisplatin-induced myelin sheath thinning
same,proportion of degenerated fibers,[7]; p>0.05,slight but not significant reduction
same,protection against loss of M wave amplitude,[8]; 4-MC 10 μg/kg IP daily with vincristine,protect the loss of M wave amplitude only transiently
same,prevention of H-wave amplitude reduction by taxol,[9]; 4-MC 10 μg/kg daily i.p.,not significant
same,H wave latency under taxol,"[9]; 4-MC 10 μg/kg daily i.p., weeks 3, 5, 6 and 7",improvement in H wave latency
same,prevention of vincristine-induced nociception loss (hot plate),[10]; 4-MC 10 μg/kg IP daily,did not appear to have any major preventive effect
N.N.O=C([O-])C1(C(=O)[O-])CCC1.[Pt+2] [carboplatin],decrease in cell survival versus control,[11],about 50%
same,decrease in cell survival versus control,[12],about 50%
CC(=O)O[C@H]1C(=O)[C@@]2(C)[C@H]([C@H](OC(=O)c3ccccc3)[C@]3(O)C[C@H](OC(=O)[C@H](O)[C@@H](NC(=O)c4ccccc4)c4ccccc4)C(C)=C1C3(C)C)[C@]1(OC(C)=O)CO[C@@H]1C[C@@H]2O [taxol],decrease of cell survival,"[11]; taxol, 'this concentration' (30 nM)",about 70%
same,decrease in cell survival,[12]; taxol 30 nM,about 55%
same,SNCV versus non-treated control,"[9]; taxol alone, 3 weeks",significantly slower
same,H wave latency,"[9]; taxol alone, 3 weeks after taxol treatment",significant increase
same,H wave latency,"[9]; taxol alone, 6 weeks after taxol treatment",dramatically increased
CC[C@]1(O)C[C@H]2CN(CCc3c([nH]c4ccccc34)[C@@](C(=O)OC)(c3cc4c(cc3OC)N(C=O)[C@H]3[C@@](O)(C(=O)OC)[C@H](OC(C)=O)[C@]5(CC)C=CCN6CC[C@]43[C@@H]65)C2)C1 [vincristine],axon diameter,[1]; vincristine alone,significantly decreases
same,myelin thickness versus control,[1]; vincristine alone,significantly reduced
same,percentage of degenerated fibers versus control,[1]; vincristine alone,two times higher
same,percentage of myelinated fibers versus control,[1]; vincristine alone,less than that in the control non-treated group
same,sciatic nerve fiber diameter versus control,[1]; vincristine alone,significant decrease in fiber diameter
same,walking test performance versus non-treated controls,[13],significantly reduced
same,body weight lost at completion of vincristine administration,[14],about 10%
same,decrease in cell survival versus control,[11],about 50%
same,decrease in the density of epidermal nerve fibers,[15],more than 50%
same,decrease in cell survival versus control,[12],about 50%
same,loss of M wave amplitude versus control,"[8]; vincristine alone, 2 weeks",about 20%
same,loss of SNCV,"[8]; vincristine alone, 5 weeks after treatment initiation",about 10 m/s
same,hot plate first reaction to heat versus control,"[10]; vincristine alone, significant at 3 and 5 weeks",delayed first reaction to heat

# From US7951359B2, “Compositions and methods for therapy or prevention of chemotherapy-induced neuropathy” (Merck Serono SA, priority 2004, dated 2011)
